The test system of this assay is CD2F1 mice, L1210 leukemia ip, survival T/C. The assay is described as follows: NCI In Vivo Anticancer Drug Screen. Data for tumor model L1210 Leukemia (intraperitoneal) in CD2F1 (CDF1) mice. To be noted: endpoint: mean survival time, higher = longer survival. In outline: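 Antitumor effect is scored in animals hosting a serially transplanted tumor. Values compare compound-dosed animals against vehicle-only controls as a simple quotient.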

Where [1] appears, read: dose: 100.0 mg/kg/injection, schedule: Q01DX001 (ip), vehicle: saline with Tween-80.
[2] abbreviates: dose: 200.0 mg/kg/injection, schedule: Q01DX001 (ip), vehicle: saline with Tween-80.
Where [3] appears, read: dose: 400.0 mg/kg/injection, schedule: Q01DX001 (ip), vehicle: saline with Tween-80.
Where [4] appears, read: dose: 100.0 mg/kg/injection, schedule: Q04DX003 (ip), vehicle: saline with Tween-80.
Setting [5] is: dose: 200.0 mg/kg/injection, schedule: Q04DX003 (ip), vehicle: saline with Tween-80.
Setting [6] is: dose: 400.0 mg/kg/injection, schedule: Q04DX003 (ip), vehicle: saline with Tween-80.
The mark [7] stands for this setting: dose: 50.0 mg/kg/injection, schedule: Q01DX009 (ip), vehicle: saline with Tween-80.
[8] abbreviates: dose: 100.0 mg/kg/injection, schedule: Q01DX009 (ip), vehicle: saline with Tween-80.
Where [9] appears, read: dose: 200.0 mg/kg/injection, schedule: Q01DX009 (ip), vehicle: saline with Tween-80.
Setting [10] is: dose: 100.0 mg/kg/injection, schedule: Q04DX002 (ip), vehicle: saline with Tween-80.
Where [11] appears, read: dose: 200.0 mg/kg/injection, schedule: Q04DX002 (ip), vehicle: saline with Tween-80.
Where [12] appears, read: dose: 50.0 mg/kg/injection, schedule: Q04DX003 (ip), vehicle: saline.
[13] abbreviates: dose: 100.0 mg/kg/injection, schedule: Q04DX003 (ip), vehicle: saline.
Setting [14] is: dose: 200.0 mg/kg/injection, schedule: Q04DX003 (ip), vehicle: saline.
The mark [15] stands for this setting: dose: 400.0 mg/kg/injection, schedule: Q01DX009 (ip), vehicle: saline with Tween-80.
[16] abbreviates: dose: 25.0 mg/kg/injection, schedule: Q01DX009 (ip), vehicle: saline with Tween-80.
Setting [17] is: dose: 100.0 mg/kg/injection, schedule: Q01DX001 (ip), vehicle: saline.
The mark [18] stands for this setting: dose: 200.0 mg/kg/injection, schedule: Q01DX001 (ip), vehicle: saline.
Where [19] appears, read: dose: 400.0 mg/kg/injection, schedule: Q01DX001 (ip), vehicle: saline.

Inconclusive results and toxic doses are left out.

As for `O=C(O)CNC1CCCC1`, the T/C was 97 % of control under setting [1], 100 % of control under setting [2] and 93 % of control under setting [3].
With `Cc1ccc(C(=O)c2ccc([N+](=O)[O-])cc2)cc1`, the T/C reads like this: under setting [4], 94 % of control; under setting [5], 94 % of control.
For the compound `[N-]=[N+]=C1C(=O)NC(=O)N2C3CC(O)C(COC12)O3` (centres undefined), the T/C runs as follows: (dose: 75.0 mg/kg/injection, schedule: Q01DX009 (ip), vehicle: saline with Tween-80) 106 % of control; (dose: 100.0 mg/kg/injection, schedule: Q01DX009 (ip), vehicle: saline sonified) 114 % of control; under setting [4], 101 % of control; (dose: 150.0 mg/kg/injection, schedule: Q01DX009 (ip), vehicle: saline with Tween-80) 108 % of control; (dose: 200.0 mg/kg/injection, schedule: Q01DX009 (ip), vehicle: saline sonified) 120 % of control; under setting [5], 104 % of control. For the same compound, the T/C by setting is: (dose: 300.0 mg/kg/injection, schedule: Q01DX009 (ip), vehicle: saline with Tween-80) 112 % of control; (dose: 400.0 mg/kg/injection, schedule: Q01DX009 (ip), vehicle: saline sonified) 121 % of control; under setting [6], 108 % of control.
Consider `Cc1cccc(/C=N/OCCC(C)C)n1`, for which the T/C under setting [7] is 102 % of control; the T/C under setting [8] is 96 % of control; the T/C under setting [4] is 93 % of control; the T/C under setting [9] was 102 % of control; the T/C under setting [5] was 89 % of control.
Regarding `Cc1ccc(OC(=O)Nc2cccc3ccccc23)cc1C`, the T/C runs as follows: under setting [10], 95 % of control; under setting [11], 91 % of control.
As for `O=P(O)(O)c1ccc(Oc2ccccc2)cc1`, the T/C was 102 % of control under setting [12], 93 % of control under setting [13] and 103 % of control under setting [14].
`COc1ccc(N=c2ssc(SC)c2-c2ccccc2)cc1`: the T/C under setting [1] was 102 % of control; the T/C under setting [8] was 103 % of control; the T/C under setting [4] is 101 % of control; the T/C under setting [2] is 100 % of control; the T/C under setting [9] is 102 % of control; the T/C under setting [5] is 102 % of control. The T/C under setting [3] was 102 % of control, the T/C under setting [15] was 103 % of control and the T/C under setting [6] was 98 % of control.
For the compound `CC12CC=CCC1CCC/C2=N/O` (centres undefined), the T/C reads like this: under setting [1], 113 % of control; (dose: 100.0 mg/kg/injection, schedule: Q04DX003 (ip), vehicle: acetone) 96 % of control; under setting [2], 97 % of control; (dose: 200.0 mg/kg/injection, schedule: Q04DX003 (ip), vehicle: acetone) 98 % of control; under setting [3], 103 % of control; (dose: 400.0 mg/kg/injection, schedule: Q04DX003 (ip), vehicle: acetone) 96 % of control.
As to `C=CC(C)(C)c1ccccc1`, the T/C by setting is: under setting [7], 93 % of control; under setting [8], 96 % of control; under setting [9], 98 % of control.
Take `O=c1ccn(C2OC(CO)C(F)(CO)C2O)c(=O)[nH]1` (centres undefined): the T/C runs as follows: (dose: 12.5 mg/kg/injection, schedule: Q01DX005 (ip), vehicle: water) 103 % of control; (dose: 25.0 mg/kg/injection, schedule: Q01DX005 (ip), vehicle: water) 109 % of control; (dose: 50.0 mg/kg/injection, schedule: Q01DX005 (ip), vehicle: water) 97 % of control; (dose: 100.0 mg/kg/injection, schedule: Q01DX005 (ip), vehicle: water) 94 % of control; (dose: 200.0 mg/kg/injection, schedule: Q01DX005 (ip), vehicle: water) 105 % of control.
With `O=C(O)CC(=O)O.[NH-]C1CCCCC1C1CCCCC1[NH-].[Pt+2]` (centres undefined), the T/C was 106 % of control (dose: 3.12 mg/kg/injection, schedule: Q04DX003 (ip), vehicle: distilled water + Tween-80); 112 % of control (dose: 6.25 mg/kg/injection, schedule: Q04DX003 (ip), vehicle: distilled water + Tween-80); 119 % of control (dose: 12.5 mg/kg/injection, schedule: Q04DX003 (ip), vehicle: distilled water + Tween-80); 165 % of control (dose: 50.0 mg/kg/injection, schedule: Q04DX003 (ip), vehicle: distilled water + Tween-80); 201 % of control (dose: 100.0 mg/kg/injection, schedule: Q04DX003 (ip), vehicle: distilled water + Tween-80); 194 % of control (dose: 200.0 mg/kg/injection, schedule: Q04DX003 (ip), vehicle: distilled water + Tween-80).
Regarding `O=S1(=O)C2CCCCCC2(N2CCOCC2)C1C1CCCCC1` (centres undefined), the T/C is, setting by setting: under setting [4], 95 % of control; under setting [5], 95 % of control; under setting [6], 97 % of control.
As to `Nc1nc(N)c(-c2ccc(Cl)c(Cl)c2)c(CBr)n1`, the T/C is 102 % of control (dose: 12.5 mg/kg/injection, schedule: Q01DX009 (ip), vehicle: saline with Tween-80) and 105 % of control under setting [16].
`NC(CS)=NC1CCCCC1`: the T/C is 104 % of control (dose: 12.5 mg/kg/injection, schedule: Q04DX002 (ip), vehicle: saline with Tween-80) and 96 % of control (dose: 25.0 mg/kg/injection, schedule: Q04DX002 (ip), vehicle: saline with Tween-80).
In the case of `O=C(O)CC(C(=O)O)=C(c1ccccc1)c1ccccc1`, the T/C under setting [17] was 98 % of control, the T/C under setting [18] was 95 % of control and the T/C under setting [19] was 101 % of control.
Regarding `Nc1nc(=O)n(C2OC(CO)C(O)C2O)c(=O)[nH]1` (centres undefined), the T/C was 108 % of control (dose: 3.12 mg/kg/injection, schedule: Q04DX003 (ip), vehicle: saline); 97 % of control (dose: 6.25 mg/kg/injection, schedule: Q04DX003 (ip), vehicle: saline); 103 % of control (dose: 12.5 mg/kg/injection, schedule: Q04DX003 (ip), vehicle: saline); 95 % of control (dose: 25.0 mg/kg/injection, schedule: Q04DX003 (ip), vehicle: saline); 92 % of control under setting [12]; 100 % of control under setting [13]. Further, the T/C under setting [14] was 95 % of control.
Turning to `CCC(c1ccc(OC)cc1)C(CC)c1ccc(O)c(CN2CCN(C)CC2)c1` (centres undefined), the T/C under setting [8] was 102 % of control.
`CC(=O)CC(C)=Nc1ccc([N+](=O)[O-])cc1`: the T/C by setting is: under setting [8], 90 % of control; under setting [9], 93 % of control; under setting [15], 90 % of control.
Regarding `C[CH2][Sn]([CH2]C)([O]S(C)(=O)=O)[O]S(C)(=O)=O`, the T/C by setting is: (dose: 0.78 mg/kg/injection, schedule: Q01DX009 (ip), vehicle: saline) 101 % of control; (dose: 1.56 mg/kg/injection, schedule: Q01DX009 (ip), vehicle: saline) 107 % of control; (dose: 3.12 mg/kg/injection, schedule: Q01DX009 (ip), vehicle: saline) 107 % of control; (dose: 6.25 mg/kg/injection, schedule: Q01DX009 (ip), vehicle: saline) 111 % of control; (dose: 12.5 mg/kg/injection, schedule: Q01DX009 (ip), vehicle: saline) 114 % of control.
As for `CCOc1ccccc1/C=C1\N=C(c2cc(OC)c(OC)c(OC)c2)OC1=O`, the T/C runs as follows: under setting [10], 106 % of control; under setting [11], 100 % of control; (dose: 400.0 mg/kg/injection, schedule: Q04DX002 (ip), vehicle: saline with Tween-80) 95 % of control.
For the compound `COC(=O)c1cccc2c1ccc1ccccc12`, the T/C was 91 % of control (dose: 75.0 mg/kg/injection, schedule: Q01DX001 (ip), vehicle: saline) and 95 % of control (dose: 150.0 mg/kg/injection, schedule: Q01DX001 (ip), vehicle: saline).
Consider `O=C(O)CNC(=O)CCNC(=O)OCc1ccccc1`, for which the T/C is, setting by setting: under setting [8], 95 % of control; under setting [9], 93 % of control; under setting [15], 93 % of control.
With `CN1CCCC1CCNc1nc(Nc2ccc(Cl)c(Cl)c2)nc2ccc(Cl)cc12` (centres undefined), the T/C under setting [16] is 97 % of control and the T/C under setting [1] is 103 % of control.
With `ONC(CC(O)(NO)NO)c1ccccc1` (centres undefined), the T/C under setting [17] was 107 % of control, the T/C under setting [18] was 107 % of control and the T/C under setting [19] is 108 % of control.
As to `Nc1nc2nc3c(nc2c(=O)[nH]1)CN(c1ccc(C(=O)O)cc1)C3=O`, the T/C under setting [4] is 95 % of control and the T/C under setting [5] was 97 % of control.
